Columns and labels:
Format in all cases: in vivo
[1] = test system: giant foxtail (Setaria faberii); experiment: Test A preemergence
Procedure, shortened: (§1)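 Preemergence soil spray on seeded pots or post-emergence spray on 1–2 leaf plants, in loam–sand blend. Greenhouse ~10 d. Visual rating 0–100 against untreated plants.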

[2] = test system: Kochia (Kochia scoparia); experiment: Test A preemergence
Procedure, shortened: as §1

[3] = test system: pigweed (Amaranthus retroflexus); experiment: Test A preemergence
[4] = test system: ragweed (common ragweed, Ambrosia elatior); experiment: Test A preemergence
Procedure, shortened: as §1

[5] = test system: barnyardgrass (Echinochloa crus-galli); experiment: Test A preemergence
Procedure, shortened: as §1

[6] = test system: ryegrass, Italian (Italian ryegrass, Lolium multiflorum); experiment: Test A preemergence
Procedure, shortened: as §1

[7] = test system: corn (Zea mays); experiment: Test A postemergence
Procedure, shortened: as §1

[8] = test system: giant foxtail (Setaria faberii); experiment: Test A postemergence
Procedure, shortened: as §1

[9] = test system: Kochia (Kochia scoparia); experiment: Test A postemergence
Procedure, shortened: as §1

[10] = test system: pigweed (Amaranthus retroflexus); experiment: Test A postemergence
Procedure, shortened: as §1

[11] = test system: blackgrass (Alopecurus myosuroides); experiment: Test A postemergence
Procedure, shortened: as §1

[12] = test system: ragweed (common ragweed, Ambrosia elatior); experiment: Test A postemergence
Procedure, shortened: as §1

[13] = test system: wheat (Triticum aestivum); experiment: Test A postemergence
Procedure, shortened: as §1

[14] = test system: barnyardgrass (Echinochloa crus-galli); experiment: Test A postemergence
Procedure, shortened: as §1

[15] = test system: ryegrass, Italian (Italian ryegrass, Lolium multiflorum); experiment: Test A postemergence
Procedure, shortened: as §1

[16] = test system: Galium (catchweed bedstraw, Galium aparine); experiment: Test A postemergence
Procedure, shortened: as §1

[17] = test system: rice (Oryra sativa); experiment: Test B flooded paddy test; conditions: Flood, 250 g ai/ha
Procedure, shortened: (§2)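 Visual ratings (0 none to 100 complete control) are relative to untreated plants, taken 13–15 d after treatment in a greenhouse. Test material went straight into floodwater standing 3 cm above the soil, kept constant, on plants at the 2-leaf stage.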

[18] = test system: barnyardgrass (Echinochloa crus-galli); experiment: Test B flooded paddy test; conditions: Flood, 250 g ai/ha
Procedure, shortened: as §2

[19] = test system: sedge, umbrella (small-flower umbrella sedge, Cyperus difformis); experiment: Test B flooded paddy test; conditions: Flood, 250 g ai/ha
Procedure, shortened: as §2

[20] = test system: ducksalad (Heteranthera limosa); experiment: Test B flooded paddy test; conditions: Flood, 250 g ai/ha
Procedure, shortened: as §2

[21] = 125 g ai/ha, preemergence, 0 to 100 scale (0 no effect, 100 complete control)
[22] = Preemergence, 500 g ai/ha, 0 is no effect, 100 is complete control
[23] = 125 g ai/ha, postemergence, visual injury rating on 0 to 100 scale (0 no effect, 100 complete control), approx. 10 d
[24] = 500 g ai/ha, postemergence, 0 to 100 scale, 0 no effect, 100 complete control
[25] = Postemergence, 125 g ai/ha, visual injury, 0 to 100 scale (0 no effect, 100 complete control), approx. 10 d
[26] = 0 to 100 scale where 0 is no effect and 100 is complete control, 13 to 15 d

CC(C)Oc1ccc([C@H]2CN(C)C(=O)[C@@H]2C(=O)Nc2cccc(F)c2F)cc1 [Compound 953]
100%: pest or weed control at 500 g/ha ([1]; Setaria faberi, pre-emergence, 240 h, 500 g ai/ha, preemergence, visual injury rating about 10 d after treatment, 0 to 100 scale (0 no effect, 100 complete control), read-out: Foxtail, Giant plant response rating)
20%: pest or weed control at 125 g/ha ([16]; Galium, post-emergence, 240 h, 125 g ai/ha, Postemergence, visual injury after approximately 10 d, 0 to 100 scale where 0 is no effect and 100 is complete control, read-out: Plant response rating, Galium) | pest or weed control at 250 g/ha ([18]; Echinochloa crus-galli, scale of 0 to 100 where 0 is no effect and 100 is complete control, read-out: Barnyardgrass plant response rating)
60%: pest or weed control at 125 g/ha ([2]; Bassia scoparia, pre-emergence, 240 h, 125 g ai/ha, Preemergence, visual injury rating after approximately 10 d, read-out: Kochia plant response rating (0 to 100 scale, 0 is no effect, 100 is complete control)) | pest or weed control at 500 g/ha ([2]; Bassia scoparia, pre-emergence, 240 h, 500 g ai/ha, preemergence, visual injury rating about 10 d after treatment, 0 to 100 scale (0 no effect, 100 complete control), read-out: Kochia plant response rating) | pest or weed control at 500 g/ha ([6]; Lolium multiflorum, pre-emergence, 240 h, 500 g ai/ha, preemergence, visual injury rating about 10 d after treatment, 0 to 100 scale (0 no effect, 100 complete control), read-out: Ryegrass, Italian plant response rating)
0%: pest or weed control at 125 g/ha ([3]; Amaranthus retroflexus, pre-emergence, 240 h, 125 g ai/ha, Preemergence, visual injury rating after approximately 10 d, read-out: Pigweed plant response rating (0 to 100 scale, 0 is no effect, 100 is complete control)) | pest or weed control at 500 g/ha ([3]; Amaranthus retroflexus, pre-emergence, 240 h, 500 g ai/ha, preemergence, visual injury rating about 10 d after treatment, 0 to 100 scale (0 no effect, 100 complete control), read-out: Pigweed plant response rating) | pest or weed control at 125 g/ha ([4]; Ambrosia artemisiifolia, pre-emergence, 240 h, 125 g ai/ha, Preemergence, visual injury rating after approximately 10 d, read-out: Ragweed plant response rating (0 to 100 scale, 0 is no effect, 100 is complete control)) | pest or weed control at 500 g/ha ([4]; Ambrosia artemisiifolia, pre-emergence, 240 h, 500 g ai/ha, preemergence, visual injury rating about 10 d after treatment, 0 to 100 scale (0 no effect, 100 complete control), read-out: Ragweed plant response rating) | pest or weed control at 125 g/ha ([6]; Lolium multiflorum, pre-emergence, 240 h, 125 g ai/ha, Preemergence, visual injury rating after approximately 10 d, read-out: Ryegrass, Italian plant response rating (0 to 100 scale, 0 is no effect, 100 is complete control)) | Corn plant response rating (crop injury, 0 = no effect, 100 = complete kill) at 125 g/ha ([7]; Zea mays, post-emergence, 240 h, 125 g ai/ha, Postemergence, visual injury after approximately 10 d, 0 to 100 scale where 0 is no effect and 100 is complete control) | pest or weed control at 125 g/ha ([10]; Amaranthus retroflexus, post-emergence, 240 h, 125 g ai/ha, Postemergence, visual injury after approximately 10 d, 0 to 100 scale where 0 is no effect and 100 is complete control, read-out: Plant response rating, Pigweed) | pest or weed control at 125 g/ha ([11]; Alopecurus myosuroides, post-emergence, 240 h, 125 g ai/ha, Postemergence, visual injury after approximately 10 d, 0 to 100 scale where 0 is no effect and 100 is complete control, read-out: Plant response rating, Blackgrass) | pest or weed control at 125 g/ha ([12]; Ambrosia artemisiifolia, post-emergence, 240 h, 125 g ai/ha, Postemergence, visual injury after approximately 10 d, 0 to 100 scale where 0 is no effect and 100 is complete control, read-out: Plant response rating, Ragweed) | plant injury at 125 g/ha ([13]; Triticum aestivum, post-emergence, 240 h, 125 g ai/ha, Postemergence, visual injury after approximately 10 d, 0 to 100 scale where 0 is no effect and 100 is complete control, read-out: Plant response rating, Wheat) | pest or weed control at 125 g/ha ([15]; Lolium multiflorum, post-emergence, 240 h, 125 g ai/ha, Postemergence, visual injury after approximately 10 d, 0 to 100 scale where 0 is no effect and 100 is complete control, read-out: Plant response rating, Ryegrass, Italian) | pest or weed control at 250 g/ha ([17]; Oryza sativa, scale of 0 to 100 where 0 is no effect and 100 is complete control, read-out: Rice plant response rating) | pest or weed control at 250 g/ha ([19]; Cyperus difformis, scale of 0 to 100 where 0 is no effect and 100 is complete control, read-out: Sedge, Umbrella plant response rating)
40%: pest or weed control at 250 g/ha ([20]; Heteranthera limosa, scale of 0 to 100 where 0 is no effect and 100 is complete control, read-out: Ducksalad plant response rating)
90%: pest or weed control at 125 g/ha ([1]; Setaria faberi, pre-emergence, 240 h, 125 g ai/ha, Preemergence, visual injury rating after approximately 10 d, read-out: Foxtail, Giant plant response rating (0 to 100 scale, 0 is no effect, 100 is complete control)) | pest or weed control at 125 g/ha ([5]; Echinochloa crus-galli, pre-emergence, 240 h, 125 g ai/ha, Preemergence, visual injury rating after approximately 10 d, read-out: Barnyardgrass plant response rating (0 to 100 scale, 0 is no effect, 100 is complete control)) | pest or weed control at 500 g/ha ([5]; Echinochloa crus-galli, pre-emergence, 240 h, 500 g ai/ha, preemergence, visual injury rating about 10 d after treatment, 0 to 100 scale (0 no effect, 100 complete control), read-out: Barnyardgrass plant response rating) | pest or weed control at 125 g/ha ([8]; Setaria faberi, post-emergence, 240 h, 125 g ai/ha, Postemergence, visual injury after approximately 10 d, 0 to 100 scale where 0 is no effect and 100 is complete control, read-out: Plant response rating, Foxtail, Giant) | pest or weed control at 125 g/ha ([14]; Echinochloa crus-galli, post-emergence, 240 h, 125 g ai/ha, Postemergence, visual injury after approximately 10 d, 0 to 100 scale where 0 is no effect and 100 is complete control, read-out: Plant response rating, Barnyardgrass)
30%: pest or weed control at 125 g/ha ([9]; Bassia scoparia, post-emergence, 240 h, 125 g ai/ha, Postemergence, visual injury after approximately 10 d, 0 to 100 scale where 0 is no effect and 100 is complete control, read-out: Plant response rating, Kochia)

CN1CC(c2ccc(C(F)(F)F)c(F)c2)C(C(=O)Nc2cccc(F)c2F)C1=O (centres unmarked) [Compound 396]
80: Plant response rating, Kochia [2, 21] | Kochia plant response rating (0 to 100 scale) [2, 22] | Plant response rating, Corn [7, 24] | Foxtail, Giant plant response rating [8, 23]
40: Plant response rating, Barnyardgrass [18, 26] | Plant response rating, Ducksalad [20, 26]
30: Plant response rating, Rice [17, 26]
90: Plant response rating, Foxtail, Giant [1, 21] | Foxtail, Giant plant response rating (0 to 100 scale) [1, 22] | Plant response rating, Pigweed [3, 21] | Pigweed plant response rating (0 to 100 scale) [3, 22] | Plant response rating, Barnyardgrass [5, 21] | Barnyardgrass plant response rating (0 to 100 scale) [5, 22] | Plant response rating, Foxtail, Giant [8, 24] | Plant response rating, Barnyardgrass [14, 24]
0: Plant response rating, Ragweed [4, 21] | Ragweed plant response rating [12, 23] | Plant response rating, Ragweed [12, 24] | Plant response rating, Sedge, Umbrella [19, 26]
20: Ragweed plant response rating (0 to 100 scale) [4, 22] | Wheat plant response rating [13, 23]
70: Ryegrass, Italian plant response rating (0 to 100 scale) [6, 22] | Corn plant response rating [7, 23] | Plant response rating, Kochia [9, 24] | Plant response rating, Pigweed [10, 24] | Plant response rating, Wheat [13, 24] | Plant response rating, Barnyardgrass [14, 25] | Plant response rating, Ryegrass, Italian [15, 24]
50: Plant response rating, Blackgrass [11, 25] | Ryegrass, Italian plant response rating [15, 23]
60: Plant response rating, Ryegrass, Italian [6, 21] | Kochia plant response rating [9, 23] | Pigweed plant response rating [10, 23] | Plant response rating, Blackgrass [11, 24] | Galium plant response rating [16, 23] | Plant response rating, Galium [16, 24]
